Laboratory results reported in publication PMC6130577, “Rational screening of peroxisome proliferator-activated receptor-γ agonists from natural products: potential therapeutics for heart failure” (Pharmaceutical Biology, 2016).
Where two headings read alike, the source gives them in different places.

Assays:
[1] = biological target: T1, human PPARγ (hPPARγ) (Homo sapiens, UniProt P37231); assay: Transactivation reporter assay (chimeric GAL4-PPAR reporter-gene assay in CV-1 cells); assay type: cell-based; details: for EC50: CV-1 cells, 48 h, luciferase, triplicate
T1 construct: expressed in transfected cells; host or cells: CV-1 cells
T1 sequence (P37231 238-503 limits assumed): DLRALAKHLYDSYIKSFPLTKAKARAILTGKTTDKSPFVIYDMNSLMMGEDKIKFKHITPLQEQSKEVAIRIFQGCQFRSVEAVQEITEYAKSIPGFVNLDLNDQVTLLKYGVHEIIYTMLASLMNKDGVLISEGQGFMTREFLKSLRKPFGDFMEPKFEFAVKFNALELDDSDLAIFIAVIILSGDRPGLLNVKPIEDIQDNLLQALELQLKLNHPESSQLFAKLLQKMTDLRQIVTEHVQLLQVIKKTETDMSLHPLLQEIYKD
Experimental: Briefly, chimeric receptor expression plasmid pcDNA3-hPPARγ/GAL4 was prepared by inserting the yeast GAL4 transcription factor DNA-binding domain adjacent to the hPPARγ LBD domain. The reporter plasmid, p(UAS)5-tk-luc, was generated by inserting five copies of the GAL4 response element upstream of the herpesvirus minimal thymidine kinase promoter and the luciferase reporter gene. The chimeric receptor expression plasmid and reporter plasmid were cotransfected into CV-1 cells. The transfected cells were cultured with or without each tested compound for 48 h and then steady-state luminescence intensity was measured with a microplate luminometer (Turner Biosystems). All compounds were purchased from Sigma-Aldrich and ChemPartner, and dissolved in dimethyl sulfoxide (<0.1% v/v). Each assay was carried out in triplicate.

[2] = test system: PPARγ; details: cited from earlier work
[3] = literature value, ref Xu et al. [2001], read-out: Agonistic activity EC50

For CC1=NN(CN2CCOCC2)C(=O)/C1=N\Nc1ccc(C(=O)O)cc1 [ZINC13408172], the Agonistic intensity [1] was 116% and the EC50 [1] was 84 ± 15 nM.
In the case of CCCCc1nc(Cl)c(C=O)n1Cc1ccc(-c2ccccc2-c2nn[nH]n2)cc1 [EXP3179], the EC50 ([2]; literature value, ref Schupp et al. [2006], read-out: Agonistic activity EC50) is given as 17000 nM.
For CC(C)O[C@@H](Cc1cccc(OC[C@H](F)COc2ccc(Cl)cc2C#N)c1)C(=O)O [E3030], the EC50 ([2]; literature value, ref Kasai et al. [2008], read-out: Agonistic activity EC50) is given as 34 nM.
In the case of C/C(=C/C(=O)c1ccccc1)N[C@@H](Cc1ccc(OCCc2nc(-c3ccccc3)oc2C)cc1)C(=O)O [GW409544], the EC50 [2, 3] is given as 0.28 nM.
In the case of COC(=O)/C(=C/c1cc(OC)cc(OC)c1)c1ccc(Oc2ccc(CC3SC(=O)NC3=O)cc2)cc1 (stereo not drawn) [CLX-0921], the EC50 ([2]; literature value, ref Dey et al. [2003], read-out: Agonistic activity EC50) is listed as 284 nM.
For O=C(N/N=C/c1ccc(-c2ccc([N+](=O)[O-])cc2)o1)c1ccccc1 [ZINC44179], the Agonistic intensity [1] was 78% and the EC50 [1] was 350 ± 60 nM.
For CC1(COc2ccc(CC3SC(=O)NC3=O)cc2)CCCCC1 (stereo not drawn) [Ciglitazone], the EC50 ([2]; literature value, ref Willson et al. [1996], read-out: Agonistic activity EC50) is given as 3000 nM.
For CN(CCOc1ccc(CC2SC(=O)NC2=O)cc1)c1ccccn1 (stereo not drawn) [Rosiglitazone], the EC50 [2, 3] is listed as 18 nM and the EC50 ([2]; previous report, ref Xu et al. [2001], read-out: EC50 (converted)) is listed as 18 nM.
